In ChEMBL document CHEMBL5634192, “Transforming Therapeutic Approaches with PROTAC Technology: New Targets and Potentials” (ACS Med Chem Lett, 2024):

Experiments:
[1] = target: T1, von Hippel-Lindau disease tumor suppressor/Interleukin-1 receptor-associated kinase 4 (Homo sapiens, UniProt Q9NWZ3+P40337); test: PROTAC activity at VHL E3 ligase/IRAK4 in human PBMC cells assessed as induction of degradation of IRAK4 incubated overnight by ELISA method relative to control; type: cell-based
Target sequence in this assay (P40337 whole entry, looked up): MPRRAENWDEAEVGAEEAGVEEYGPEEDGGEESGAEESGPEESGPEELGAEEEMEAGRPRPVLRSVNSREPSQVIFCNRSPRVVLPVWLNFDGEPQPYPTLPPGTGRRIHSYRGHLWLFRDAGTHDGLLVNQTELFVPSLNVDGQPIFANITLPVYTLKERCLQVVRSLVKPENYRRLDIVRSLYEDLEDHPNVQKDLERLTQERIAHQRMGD
Target sequence in this assay (Q9NWZ3 whole entry, looked up): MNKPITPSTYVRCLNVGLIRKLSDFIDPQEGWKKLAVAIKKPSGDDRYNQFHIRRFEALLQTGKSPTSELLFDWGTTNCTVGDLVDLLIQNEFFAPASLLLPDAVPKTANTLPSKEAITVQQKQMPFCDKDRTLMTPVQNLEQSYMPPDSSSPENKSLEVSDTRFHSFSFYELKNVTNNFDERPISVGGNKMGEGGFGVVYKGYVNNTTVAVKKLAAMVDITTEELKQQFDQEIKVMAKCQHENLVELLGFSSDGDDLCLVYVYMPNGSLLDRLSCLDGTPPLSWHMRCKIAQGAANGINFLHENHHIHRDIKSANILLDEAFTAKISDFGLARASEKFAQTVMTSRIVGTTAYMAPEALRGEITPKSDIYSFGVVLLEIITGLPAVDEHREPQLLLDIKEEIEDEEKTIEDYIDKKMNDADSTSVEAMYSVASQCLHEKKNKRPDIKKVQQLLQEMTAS

[2] = target: T1, von Hippel-Lindau disease tumor suppressor/Interleukin-1 receptor-associated kinase 4; test: PROTAC activity at VHL E3 ligase/IRAK4 in human PBMC cells assessed as induction of degradation of IRAK4 incubated overnight by ELISA method; type: cell-based

Emax [1] [%]	DC50 [2] [nM]	EC90 [2] [nM]	SMILES
> 90	< 1	< 10	CC(C)Oc1cc2c(cc1NC(=O)c1cnn3cccnc13)CN(C1CCN(CC3CCN(c4ccc(C5CCC(=O)NC5=O)c(F)c4)CC3)CC1)C2=O (centres undefined)
> 90	< 1	< 10	O=C1CCC(c2ccc(N3CCC4(CCC(CN5CCC(n6cc7cc(NC(=O)c8cnn9cccnc89)c(OCC8CC8)cc7n6)CC5)CC4)CC3)cc2F)C(=O)N1 (centres undefined)
> 90	< 1	< 10	CC(C)Oc1cc2c(cc1NC(=O)c1cnn3cccnc13)CN(C1CCN(CC3CCN(c4ccc(C5CCC(=O)NC5=O)cn4)CC3)CC1)C2=O (centres undefined)
> 90	1	< 10	O=C1CCC(c2ccc(N3CCC4(CC3)CC(CN3CCC(n5cc6cc(NC(=O)c7cnn8cccnc78)c(OCC7CC7)cc6n5)CC3)C4)cc2F)C(=O)N1 (centres undefined)
> 90	< 1	< 10	O=C1CCC(c2ccc(N3CC(F)(CN4CCC(n5cc6cc(NC(=O)c7cnn8cccnc78)c(N7CCC(N8CCC8)CC7)cc6n5)CC4)C3)cc2F)C(=O)N1 (centres undefined)
> 90	1	< 10	CC(C)Oc1cc2c(cc1NC(=O)c1cnn3cccnc13)CN(C1CCN(CC3CCN(c4ccc(C5CCC(=O)NC5=O)cc4)CC3)CC1)C2=O (centres undefined)
> 90	< 1	< 10	CC(C)Oc1nc2c(cc1NC(=O)c1cnn3cccnc13)CN(C1CCN(CC3CCN(c4ccc(C5CCC(=O)NC5=O)c(F)c4)CC3)CC1)C2=O (centres undefined)
> 90	< 1	< 10	O=C1CCC(c2ccc(N3CC(F)(CN4CCC(n5cc6cc(NC(=O)c7cnn8cccnc78)c(OCC7CC7)cc6n5)CC4)C3)cc2F)C(=O)N1 (centres undefined)
